According to US20200290950A1, “ALKAMIDE COMPOUNDS AND USES THEREOF” (NORTH CAROLINA STATE UNIVERSITY, priority 2017, published 2020):

What was measured:
RBL-2H3 cells [1] = experiment: Fluo-4 calcium assay, RBL-2H3 cells (Example 1); assay type: cell-based, rat; conditions: RBL-2H3 cells, 1 μM A23187, microscopy, n=5 fields
Description: FIGS. 3A-3H. A15 inhibits calcium influx in RBL-2H3 cells and BMMCs. RBL-2H3 cells (FIGS. 3A-3D) and BMMCs (FIGS. 3E-3H) were plated and incubated overnight prior to treatments. For DNP-BSA treatments, overnight incubation also included 1 μg/mL IgE anti-DNP. Prior to stimulation, cells were washed and loaded with the fluorescent, calcium-sensitive dye fluo-4 AM using the Fluo-4 AM Direct™ Calcium Assay Kit and fluorescence was measured on a microplate reader. Calcium influx was triggered in all experiments using either 1 μM A23187 or 50 ng/mL DNP-BSA, as indicated. Bar graphs represent the means±SEM of the Δ in RFU's at 1 min post-A23187- or DNP-BSA-stimulation from 3 independent experiments (FIGS. 3B, 3D, 3F, 3H). Statistical analysis was performed using a one-way ANOVA with Dunnett's post-hoc test, *p<0.05, **p<0.01, ***p<0.001.
FIG. 9. A15 inhibits calcium influx in RBL-2H3 cells. Prior to stimulation, cells were washed and loaded with the fluorescent, calcium-sensitive dye fluo-4 AM using the Fluo-4 AM Direct™ Calcium Assay Kit. Cells were treated with 100 μM A15 (D, E, F), 0.25% ethanol only (vehicle) (A, B, C), 1 μM A23187 (G, H, I), and 100 μM A15 in combination with 1 μM A23187 (J, K, L) as indicated. Images were acquired at 30, 60, and 120 seconds, post-stimulation. Images are representative of several experiments.
RBL-2H3, BMMC, RAW 264.7, or Jurkat cells were plated in clear-bottom, black, 96-well plates (BioExpress, Kaysville, Utah) and incubated overnight with media only or media containing IgE anti-DNP. Cells were loaded with the calcium-sensitive dye fluo-4 AM using the Fluo-4 Direct™ Calcium Assay Kit (Thermo Fisher Scientific) according to the manufacturer's instructions by incubating at 37° C. for 30 min followed by 30 min at room temperature. Prior to stimulation, baseline fluorescent readings were measured from triplicate wells in 5 s intervals for 1 min using a Synergy HT microplate reader with 485/20 nm excitation and 528/20 nm emission filters. Cells were then treated with either 1 μM A23187 or 50 ng/mL DNP-BSA prepared in calcium- and magnesium-containing or calcium- and magnesium-free HBSS with 20 mM HEPES, and fluorescence was measured in 10 s intervals for 2 min. The final concentration of ethanol was 0.25% in these assays. The average baseline fluorescence of each well was subtracted from the stimulated fluorescent values to calculate the change (Δ) in RFU's and graphed as shown.
Cells loaded with fluo-4 were treated and observed with an Axioskop 2 microscope (Zeiss, Oberkochen, Germany) using a fluorescent illuminator HXP-120 light source and images were acquired at 30, 60, or 120 sec after stimulation with a AxioCam MRc5 camera (Zeiss) and AxioVision software (Zeiss).

[2] = molecular target: cannabinoid type 2 receptor (CB2) (Homo sapiens, UniProt P34972); conditions: Raduner et al., 2006; cited from earlier work
Sequence of cannabinoid type 2 receptor (CB2) (P34972 whole entry, species assumed): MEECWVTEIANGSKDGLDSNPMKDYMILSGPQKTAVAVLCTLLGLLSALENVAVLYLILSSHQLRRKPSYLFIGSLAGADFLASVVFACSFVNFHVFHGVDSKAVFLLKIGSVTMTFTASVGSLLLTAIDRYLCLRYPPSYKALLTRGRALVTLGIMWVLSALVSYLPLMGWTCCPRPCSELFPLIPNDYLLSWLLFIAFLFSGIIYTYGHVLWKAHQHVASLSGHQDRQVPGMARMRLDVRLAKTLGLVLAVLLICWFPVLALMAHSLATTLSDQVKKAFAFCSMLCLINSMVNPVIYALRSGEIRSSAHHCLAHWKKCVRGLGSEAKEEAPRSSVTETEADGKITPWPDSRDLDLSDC

RAW 264.7 cells = conditions: LPS-stimulated RAW 264.7 cells, literature; cited from earlier work
RBL-2H3 cells [3] = experiment: β-Hexosaminidase release assay (Example 3); assay type: cell-based, rat
Description: FIGS. 21A-21D. The inhibition of degranulation is dependent on the length of the alkamide fatty acid chain. RBL-2H3 cells were plated overnight, stimulated with 1 μM A23187 (FIG. 21A) or 5 ng/mL DNP-BSA (FIG. 21B) for 1 h in the absence or presence of each compound. Graphs display the mean percent β-hex release. Data are presented as the mean of 4 experiments. Percent inhibition of degranulation of A23187 (FIG. 21C) or DNP-BSA (FIG. 21D) using data from A and B, respectively. *P<0.05, **P<0.01, ***P<0.001, one-way ANOVA with Dunnett's post hoc test compared to vehicle (A, B) or A15 (C, D).
RBL-2H3 cells (1.0×10^5 cells) were incubated with or without 0.1 μg/mL of IgE-DNP overnight in a 96 well plate at 37° C. with 5% CO2. The cells were washed with Tyrode's buffer and assayed with few modifications (Kuehn, Radinger, & Gilfillan, 2010). Briefly, IgE-DNP sensitized cells were stimulated 1 hour with 5 ng/mL of DNP-BSA in the absence or presence of each compound and incubated at 37° C. with 5% CO2. For experiments using only A23187 as the stimulant, cells were washed with Tyrode's buffer and stimulated 1 hour with 1 μM A23187 in the absence or presence of each compound and incubated at 37° C. with 5% CO2. The stimulated cells were centrifuged at 1200×g for 5 minutes. The supernatant or cell lysate (30 μL) was incubated with 3.4 mg/mL of p-NAG (10 μL) for 1 hour at 37° C. The reaction was terminated by addition of 0.2 M sodium carbonate (pH 10) and the absorbance was read at OD405 nm on a BioTek Synergy HT microplate reader. The total 3-hexosaminidase released from the cell was calculated as the difference between the OD of the supernatant and blank plus the difference between the OD of the lysate and blank. The percent β-hexosaminidase released from the cell was calculated as the difference between the OD of the supernatant and blank divided by the total β-hexosaminidase released from the cell multiplied by 100: ODsupernatant−ODblank/[(ODlysate−ODblank)+(ODsupernatant−ODblank)]*100.

RBL-2H3 cells [4] = experiment: Calcium assay, Fluo-4 (Example 3); assay type: cell-based, rat
Description: FIGS. 22A-22D. The alkamide fatty acid is necessary for inhibition of calcium influx. RBL-2H3 cells were plated overnight, incubated with Fluo-4 AM for 1 h, stimulated by 1 μM A23187 (FIG. 22A) or 5 ng/mL DNP-BSA (FIG. 22B) in the absence or presence of each alkamide, and fluorescence was read for 2 mins every 5 secs. Data are presented as the mean change in RFU of 4 experiments. Percent inhibition of calcium influx was calculated for A23187 (FIG. 22C) and DNP-BSA (FIG. 22D) stimulated cells at 2 mins. *P<0.05, **P<0.01, and ***P<0.001 one-way ANOVA with Dunnett's post hoc test compared to A15.
RBL-2H3 cells (1.0×10^5 cells) were incubated overnight in a 96 well black-wall clear bottom plate with or without IgE-DNP (0.1 μg/mL) at 37° C. with 5% CO2. The assay was performed using the Fluo-4 Direct™ Calcium Assay Kit according to the manufacturer's instruction. Briefly, cells were incubated with the Fluo-4 Direct calcium reagent loading solution for 30 minutes at 37° C. with 5% CO2 then 30 mins at room temperature. Prior to stimulation, the well baseline fluorescence was measured every 5 seconds over 1 minute using a BioTek Synergy HT microplate reader with 485/20 nm excitation and 528/20 nm emission filters. Cells were stimulated with 1 μM A23187 or 5 ng/mL DNP (IgE-DNP) in the absence or presence of each compound, and the fluorescence was measured every 5 seconds over 2 minutes. The change in fluorescence (ΔRT) was calculated as the sample fluorescence minus the baseline fluorescence for each well.

RBL-2H3 cells [5] = experiment: TNF-α ELISA, 18 hrs (Example 3); assay type: cell-based, rat; conditions: 1 μM A23187, 18 hours
Description: FIGS. 25A-25B. […] RBL-2H3 cells were plated overnight and stimulated with 1 μM A23187 in the absence or presence of each alkamide for 18 h. Culture supernatants were analyzed for TNF-α levels by ELISA and experiments were performed in triplicate (FIG. 25A). Percent inhibition of TNF-α secretion for each alkamide listed in FIG. 25B. *P<0.05, **P<0.01, ***P<0.001, one-way ANOVA with Dunnett's post hoc test compared to vehicle (FIG. 25A) or A15 (FIG. 25B).
RBL-2H3 cells (1.0×10^5 cells) were incubated overnight in a 24 well plate at 37° C. with 5% CO2. Cells were washed with 1×PBS and stimulated with 1 μM A23187 for 18 hrs in the absence or presence of each compound. The cells were centrifuged (1200×g, 5 min) and the supernatants were collected. The concentration of TNF-α in the supernatants were determined using the TNF-α ELISA kit.

Compound	percent inhibition of degranulation (RBL-2H3 cells [3]; 5 ng/mL DNP-BSA, 1 hour) [%]	percent inhibition of degranulation (RBL-2H3 cells [3]; 1 μM A23187, 1 hour) [%]	percent inhibition of calcium influx (RBL-2H3 cells [4]; 5 ng/mL DNP-BSA, at 2 minutes) [%]	percent inhibition of TNF-α secretion (RBL-2H3 cells [5]) [%]	other results
CNc1ccc2oc(C[C@H]3O[C@@]4(CC[C@H]3C)O[C@H]([C@H](C)C(=O)c3ccc[nH]3)[C@H](C)C[C@H]4C)nc2c1C(=O)O [A23187, reference compound]	–	–	–	–	increase in fluorescence (pixel intensity) (RBL-2H3 cells [1]): 158.4%
C/C=C\C=C/CC/C=C/C=C/C(=O)NCC(C)C [A11a/b, dodeca-2E,4E,8Z,10Z(E)-tetraenoic acid isobutylamide, reference compound]	–	–	–	–	binding to CB2 [2]: shown to bind; TNF-α production (RAW 264.7 cells): reduced TNF-α production
CCCCCCCCCC(=O)NCC(C)C [YM8-86, N-Isobutyldecanamide]	46	59	40	50	percent inhibition of calcium influx (RBL-2H3 cells [4]; 1 μM A23187, at 2 minutes): 92%
CCCCCCCCCCCC(=O)NCC(C)C [YM5-27, N-Isobutyldodecanamide]	33	40	65	76	percent inhibition of calcium influx (RBL-2H3 cells [4]; 1 μM A23187, at 2 minutes): 79%; TNF-α production (RAW 264.7 cells): best inhibitors
CCN(CC)CCCCCCCCOC(=O)c1cc(OC)c(OC)c(OC)c1 [TMB-8, 3,4,5-trimethoxybenzoic acid 8-(diethylamino) octyl ester, reference compound]	–	–	–	–	β-hex release (RBL-2H3 cells [3]; 5 ng/mL DNP-BSA, 1 h): also inhibited; β-hex release (RBL-2H3 cells [3]; 1 μM A23187, 1 h): significantly inhibited β-hex release; calcium response (Fluo-4 fluorescence over 2 min) (RBL-2H3 cells [4]; 5 ng/mL DNP-BSA): decreased rate of calcium entering the cytosol; calcium response (Fluo-4 fluorescence over 2 min) (RBL-2H3 cells [4]; 1 μM A23187): decreased rate of calcium entering the cytosol
CCCC(=O)NCC(C)C [YM8-87, N-Isobutylbutyramide]	12	11	–	–	rank as inhibitor of calcium influx (RBL-2H3 cells [4]; A23187 and DNP-BSA stimulation): least effective inhibitor of calcium influx
CCCCCC(=O)NCC(C)C [YM5-47, N-Isobutylhexanamide]	36	51	38	47	–
